Laboratory results taken from ChEMBL document CHEMBL3885861, “Open TG-GATES”.

Species: Rattus norvegicus
Experiment: Open TG-GATES - Regimen: Single
Assay type: toxicity, organism-based, Sprague-Dawley
Design: regimen Single, gender Male, age 6 weeks
Conditions: in vivo, po, 0 mg/kg, route gavage, dose level Control; for APTT / Bas / Eos / Fbg / Hb / Ht / Lym / MCH / MCHC / MCV / Mono / Neu / PT / Plat / RBC / Ret / WBC: tissue Blood; for KIDNEY_L / KIDNEY_R / KIDNEY_TOTAL: tissue Kidney; for LIVER: tissue Liver; for A/G / ALP / ALT / AST / BUN / CRE / Ca / Cl / DBIL / GLC / IP / K / LDH / Na / PL / RALB / TBIL / TC / TG / TP / gamma-GTP: tissue Plasma

Structure (SMILES): CC(=O)Oc1cc(C(C)C)c(OCCN(C)C)cc1C [MOXISYLYTE]
- TERMINAL_BW (3 h): 216.6 g
- APTT (3 h): 21.3 s
- Bas (3 h): 0%
- Eos (3 h): 1%
- Fbg (3 h): 307.8 mg/dL
- Hb (3 h): 13 g/dL
- Ht (3 h): 37.8%
- Lym (3 h): 76.6%
- MCH (3 h): 21.2 pg
- MCHC (3 h): 34.4%
- MCV (3 h): 61.6 fL
- Mono (3 h): 2.4%
- Neu (3 h): 19.2%
- PT (3 h): 16.1 s
- Plat (3 h): 118.3 x10_4/uL
- RBC (3 h): 614.4 x10_4/ul
- Ret (3 h): 8.8%
- WBC (3 h): 111.5 x10_2/uL
- KIDNEY_L (3 h): 0.9 g
- KIDNEY_R (3 h): 0.9 g
- KIDNEY_TOTAL (3 h): 1.9 g
- LIVER (3 h): 9.9 g
- A/G (3 h): 1.3
- ALP (3 h): 1431.6 IU/L
- ALT (3 h): 41 IU/L
- AST (3 h): 73.6 IU/L
- BUN (3 h): 14.6 mg/dL
- CRE (3 h): 0.2 mg/dL
- Ca (3 h): 10.8 mg/dL
- Cl (3 h): 106 meq/L
- DBIL (3 h): 0.004 mg/dL
- GLC (3 h): 186.8 mg/dL
- IP (3 h): 7.7 mg/dL
- K (3 h): 4.3 meq/L
- LDH (3 h): 263.8 IU/L
- Na (3 h): 141.6 meq/L
- PL (3 h): 137.4 mg/dL
- RALB (3 h): 3 g/dL
- TBIL (3 h): 0.02 mg/dL
- TC (3 h): 79.8 mg/dL
- TG (3 h): 57 mg/dL
- TP (3 h): 5.3 g/dL
- gamma-GTP (3 h): 1 IU/L
- TERMINAL_BW (6 h): 204.4 g
- APTT (6 h): 20.5 s
- Bas (6 h): 0%
- Eos (6 h): 1%
- Fbg (6 h): 338.6 mg/dL
- Hb (6 h): 13.7 g/dL
- Ht (6 h): 39.5%
- Lym (6 h): 80.2%
- MCH (6 h): 21.4 pg
- MCHC (6 h): 34.6%
- MCV (6 h): 61.9 fL
- Mono (6 h): 1.8%
- Neu (6 h): 16.6%
- PT (6 h): 16.4 s
- Plat (6 h): 129.2 x10_4/uL
- RBC (6 h): 638.2 x10_4/ul
- Ret (6 h): 8.1%
- WBC (6 h): 99.5 x10_2/uL
- KIDNEY_L (6 h): 0.9 g
- KIDNEY_R (6 h): 1 g
- KIDNEY_TOTAL (6 h): 1.9 g
- LIVER (6 h): 8.8 g
- A/G (6 h): 1.3
- ALP (6 h): 1524.2 IU/L
- ALT (6 h): 40.2 IU/L
- AST (6 h): 76.4 IU/L
- BUN (6 h): 10.8 mg/dL
- CRE (6 h): 0.1 mg/dL
- Ca (6 h): 10.6 mg/dL
- Cl (6 h): 106.6 meq/L
- DBIL (6 h): 0.024 mg/dL
- GLC (6 h): 183.4 mg/dL
- IP (6 h): 8.9 mg/dL
- K (6 h): 4.4 meq/L
- LDH (6 h): 273 IU/L
- Na (6 h): 141.4 meq/L
- PL (6 h): 125.4 mg/dL
- RALB (6 h): 3.1 g/dL
- TBIL (6 h): 0.016 mg/dL
- TC (6 h): 71.4 mg/dL
- TG (6 h): 47.8 mg/dL
- TP (6 h): 5.4 g/dL
- gamma-GTP (6 h): 1.2 IU/L
- TERMINAL_BW (9 h): 211.6 g
- APTT (9 h): 20.8 s
- Bas (9 h): 0%
- Eos (9 h): 1%
- Fbg (9 h): 295.6 mg/dL
- Hb (9 h): 13.2 g/dL
- Ht (9 h): 38.3%
- Lym (9 h): 82.2%
- MCH (9 h): 21.6 pg
- MCHC (9 h): 34.4%
- MCV (9 h): 62.7 fL
- Mono (9 h): 2%
- Neu (9 h): 14.8%
- PT (9 h): 16.1 s
- Plat (9 h): 114.1 x10_4/uL
- RBC (9 h): 611 x10_4/ul
- Ret (9 h): 8.2%
- WBC (9 h): 120.9 x10_2/uL
- KIDNEY_L (9 h): 1 g
- KIDNEY_R (9 h): 1 g
- KIDNEY_TOTAL (9 h): 1.9 g
- LIVER (9 h): 8.9 g
- A/G (9 h): 1.3
- ALP (9 h): 1372.2 IU/L
- ALT (9 h): 36.8 IU/L
- AST (9 h): 72 IU/L
- BUN (9 h): 12.8 mg/dL
- CRE (9 h): 0.1 mg/dL
- Ca (9 h): 10.5 mg/dL
- Cl (9 h): 106.6 meq/L
- DBIL (9 h): 0.018 mg/dL
- GLC (9 h): 184.8 mg/dL
- IP (9 h): 9.6 mg/dL
- K (9 h): 4.5 meq/L
- LDH (9 h): 214 IU/L
- Na (9 h): 142.2 meq/L
- PL (9 h): 133.2 mg/dL
- RALB (9 h): 3 g/dL
- TBIL (9 h): 0.014 mg/dL
- TC (9 h): 71.8 mg/dL
- TG (9 h): 65.4 mg/dL
- TP (9 h): 5.4 g/dL
- gamma-GTP (9 h): 1 IU/L
- TERMINAL_BW (24 h): 218.4 g
- APTT (24 h): 20.3 s
- Bas (24 h): 0%
- Eos (24 h): 0.8%
- Fbg (24 h): 285.6 mg/dL
- Hb (24 h): 13.6 g/dL
- Ht (24 h): 39.3%
- Lym (24 h): 79.2%
- MCH (24 h): 21.5 pg
- MCHC (24 h): 34.5%
- MCV (24 h): 62.3 fL
- Mono (24 h): 2.2%
- Neu (24 h): 17.4%
- PT (24 h): 16.2 s
- Plat (24 h): 118.6 x10_4/uL
- RBC (24 h): 631.4 x10_4/ul
- Ret (24 h): 7.8%
- WBC (24 h): 102.9 x10_2/uL
- KIDNEY_L (24 h): 1 g
- KIDNEY_R (24 h): 1 g
- KIDNEY_TOTAL (24 h): 1.9 g
- LIVER (24 h): 10 g
- A/G (24 h): 1.2
- ALP (24 h): 1643.4 IU/L
- ALT (24 h): 44.8 IU/L
- AST (24 h): 78.2 IU/L
- BUN (24 h): 18.4 mg/dL
- CRE (24 h): 0.2 mg/dL
- Ca (24 h): 10.9 mg/dL
- Cl (24 h): 106.8 meq/L
- DBIL (24 h): 0 mg/dL
- GLC (24 h): 189 mg/dL
- IP (24 h): 6.6 mg/dL
- K (24 h): 4.3 meq/L
- LDH (24 h): 251.4 IU/L
- Na (24 h): 142 meq/L
- PL (24 h): 151.4 mg/dL
- RALB (24 h): 3.1 g/dL
- TBIL (24 h): 0.006 mg/dL
- TC (24 h): 79.8 mg/dL
- TG (24 h): 89 mg/dL
- TP (24 h): 5.7 g/dL
- gamma-GTP (24 h): 1.2 IU/L
